# Target: ROCK2 (Homo sapiens, UniProt O75116)
# Assay: ROCK2 kinase inhibition assay (LABCHIP 3000 Reader, FITC peptide substrate);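 further: rho kinase reaction read by separating phosphorylated from unphosphorylated peptide on chip, with inhibition of kinase activity computed per concentration across a dose-response series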
# Sequence of ROCK2 (O75116 whole entry, species assumed): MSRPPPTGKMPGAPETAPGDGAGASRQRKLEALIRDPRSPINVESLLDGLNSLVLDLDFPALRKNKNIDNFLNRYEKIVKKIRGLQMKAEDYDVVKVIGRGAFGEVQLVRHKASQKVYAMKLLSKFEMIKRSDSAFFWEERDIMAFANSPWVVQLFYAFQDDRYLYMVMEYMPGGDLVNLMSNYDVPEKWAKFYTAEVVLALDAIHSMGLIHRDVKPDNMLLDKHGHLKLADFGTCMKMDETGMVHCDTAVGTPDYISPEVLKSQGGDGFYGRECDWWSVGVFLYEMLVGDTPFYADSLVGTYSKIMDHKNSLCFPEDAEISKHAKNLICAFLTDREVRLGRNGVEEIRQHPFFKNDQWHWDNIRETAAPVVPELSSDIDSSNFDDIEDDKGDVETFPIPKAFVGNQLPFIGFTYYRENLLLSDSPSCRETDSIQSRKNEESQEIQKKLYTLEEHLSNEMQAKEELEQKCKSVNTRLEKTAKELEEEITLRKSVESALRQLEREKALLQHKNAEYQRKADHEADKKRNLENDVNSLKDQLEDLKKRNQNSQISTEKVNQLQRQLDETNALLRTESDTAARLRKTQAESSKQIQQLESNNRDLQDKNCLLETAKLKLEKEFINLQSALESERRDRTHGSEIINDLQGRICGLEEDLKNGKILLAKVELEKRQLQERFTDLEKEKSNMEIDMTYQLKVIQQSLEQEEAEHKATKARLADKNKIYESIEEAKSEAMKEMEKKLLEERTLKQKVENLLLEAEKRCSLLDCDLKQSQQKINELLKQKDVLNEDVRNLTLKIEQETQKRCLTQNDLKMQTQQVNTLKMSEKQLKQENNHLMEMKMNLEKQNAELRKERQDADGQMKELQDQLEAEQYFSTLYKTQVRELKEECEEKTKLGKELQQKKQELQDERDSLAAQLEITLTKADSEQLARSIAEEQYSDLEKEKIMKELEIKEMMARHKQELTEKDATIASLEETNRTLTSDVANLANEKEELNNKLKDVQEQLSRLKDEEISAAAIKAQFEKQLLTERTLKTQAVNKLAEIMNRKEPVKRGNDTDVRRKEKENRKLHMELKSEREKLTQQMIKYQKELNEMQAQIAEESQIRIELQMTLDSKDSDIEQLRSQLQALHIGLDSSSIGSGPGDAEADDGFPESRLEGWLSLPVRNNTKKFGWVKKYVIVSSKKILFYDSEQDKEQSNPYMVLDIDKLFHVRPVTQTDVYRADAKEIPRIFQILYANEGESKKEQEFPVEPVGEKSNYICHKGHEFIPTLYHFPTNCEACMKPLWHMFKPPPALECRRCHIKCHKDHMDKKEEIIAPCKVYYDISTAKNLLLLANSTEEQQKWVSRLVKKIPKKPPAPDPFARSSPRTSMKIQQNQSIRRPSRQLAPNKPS
row,SMILES,IC50 [nM]
1,"COc1cccc(-c2ccc(C(N)=O)c(OC3CC4(CC(NC(=O)c5cnn6cc(OCC(C)(C)O)ccc56)C4)C3)c2)c1 (stereo not shown) [Example 239, N-(6-((4-carbamoyl-3′-methoxy-[1,1′-biphenyl]-3-yl)oxy)spiro[3.3]heptan-2-yl)-6-(2-hydroxy-2-methylpropoxy)pyrazolo[1,5-a]pyridine-3-carboxamide]",5 to 50
2,"CC(C)(O)COc1ccc2c(C(=O)NC3CC4(C3)CC(Oc3cc(-c5cccc(O)c5)ccc3C(N)=O)C4)cnn2c1 (stereo not shown) [Example 240, N-(6-((4-carbamoyl-3′-hydroxy-[1,1′-biphenyl]-3-yl)oxy)spiro[3.3]heptan-2-yl)-6-(2-hydroxy-2-methylpropoxy)pyrazolo[1,5-a]pyridine-3-carboxamide]",5 to 50
3,"CC(C)(O)COc1ccc2c(C(=O)NC3CC4(C3)CC(Oc3cc(-c5cccc(C(F)F)c5)ccc3C(N)=O)C4)cnn2c1 (stereo not shown) [Example 241, N-(6-((4-carbamoyl-3′-(difluoromethyl)-[1,1′-biphenyl]-3-yl)oxy)spiro[3.3]heptan-2-yl)-6-(2-hydroxy-2-methylpropoxy)pyrazolo[1,5-a]pyridine-3-carboxamide]",5 to 50
4,"CC(C)(O)COc1ccc2c(C(=O)NC3CC4(C3)CC(Oc3cc(-c5cccc(F)c5)ccc3C(N)=O)C4)cnn2c1 (stereo not shown) [Example 242, N-(6-((4-carbamoyl-3′-fluoro-[1,1′-biphenyl]-3-yl)oxy)spiro[3.3]heptan-2-yl)-6-(2-hydroxy-2-methylpropoxy)pyrazolo[1,5-a]pyridine-3-carboxamide]",5 to 50
5,"CC(C)(O)COc1ccc2c(C(=O)NC3CC4(C3)CC(Oc3cc(-c5cccc(C(F)(F)F)c5)ccc3C(N)=O)C4)cnn2c1 (stereo not shown) [Example 243, N-(6-((4-carbamoyl-3′-(trifluoromethyl)-[1,1′-biphenyl]-3-yl)oxy)spiro[3.3]heptan-2-yl)-6-(2-hydroxy-2-methylpropoxy)pyrazolo[1,5-a]pyridine-3-carboxamide]",50 to 250
6,"CC(C)(O)COc1ccc2c(C(=O)NC3CC4(C3)CC(Oc3cc(-c5cccc(C#N)c5)ccc3C(N)=O)C4)cnn2c1 (stereo not shown) [Example 244, N-(6-((4-carbamoyl-3′-cyano-[1,1′-biphenyl]-3-yl)oxy)spiro[3.3]heptan-2-yl)-6-(2-hydroxy-2-methylpropoxy)pyrazolo[1,5-a]pyridine-3-carboxamide]",< 5
7,"COCc1cccc(-c2ccc(C(N)=O)c(OC3CC4(CC(NC(=O)c5cnn6cc(OCC(C)(C)O)ccc56)C4)C3)c2)c1 (stereo not shown) [Example 245, N-(6-((4-carbamoyl-3′-(methoxymethyl)-[1,1′-biphenyl]-3-yl)oxy)spiro[3.3]heptan-2-yl)-6-(2-hydroxy-2-methylpropoxy)pyrazolo[1,5-a]pyridine-3-carboxamide]",5 to 50
8,"Cc1nn(-c2cccc(-c3ccc(C(N)=O)c(OC4CC5(CC(NC(=O)c6cnn7cc(OCC(C)(C)O)ccc67)C5)C4)c3)c2)c(N)c1C#N (stereo not shown) [Example 246, N-(6-((3′-(5-amino-4-cyano-3-methyl-1H-pyrazol-1-yl)-4-carbamoyl-[1,1′-biphenyl]-3-yl)oxy)spiro[3.3]heptan-2-yl)-6-(2-hydroxy-2-methylpropoxy)pyrazolo[1,5-a]pyridine-3-carboxamide]",5 to 50
9,"CC(C)(O)COc1ccc2c(C(=O)NC3CC4(C3)CC(Oc3cc(-c5cccc(CO)c5)ccc3C(N)=O)C4)cnn2c1 (stereo not shown) [Example 247, N-(6-((4-carbamoyl-3′-(hydroxymethyl)-[1,1′-biphenyl]-3-yl)oxy)spiro[3.3]heptan-2-yl)-6-(2-hydroxy-2-methylpropoxy)pyrazolo[1,5-a]pyridine-3-carboxamide]",< 5
10,CC(C)(O)COc1ccc2c(C(=O)NC3CC4(C3)CC(Oc3cc(-c5cccc(Cl)n5)ccc3C(N)=O)C4)cnn2c1 (stereo not shown) [Example 248],5 to 50
11,"CC(C)(O)COc1ccc2c(C(=O)NC3CC4(C3)CC(Oc3cc(-c5cccc(COC(=O)NCCC(=O)O)c5)ccc3C(N)=O)C4)cnn2c1 (stereo not shown) [Example 249, 3-((((4′-carbamoyl-3′-((6-(6-(2-hydroxy-2-methylpropoxy)pyrazolo[1,5-a]pyridine-3-carboxamido)spiro[3.3]heptan-2-yl)oxy)-[1,1′-biphenyl]-3-yl)methoxy)carbonyl)amino)propanoic acid]",< 5
12,"CC(C)(O)COc1ccc2c(C(=O)NC3CC4(C3)CC(Oc3cc(-c5cccc(COC(=O)NCCC(=O)OC(C)(C)C)c5)ccc3C(N)=O)C4)cnn2c1 (stereo not shown) [Example 250, tert-butyl 3-((((4′-carbamoyl-3′-((6-(6-(2-hydroxy-2-methylpropoxy)pyrazolo[1,5-a]pyridine-3-carboxamido)spiro[3.3]heptan-2-yl)oxy)-[1,1′-biphenyl]-3-yl)methoxy)carbonyl)amino)propanoate]",50 to 250
13,"CCCNC(=O)c1cc(F)cc(-c2ccc(C(N)=O)c(OC3CC4(CC(NC(=O)c5cnn6cc(OCC(C)(C)O)ccc56)C4)C3)c2)c1 (stereo not shown) [Example 251, 5-fluoro-3′-((6-(6-(2-hydroxy-2-methylpropoxy)pyrazolo[1,5-a]pyridine-3-carboxamido)spiro[3.3]heptan-2-yl)oxy)-N3-propyl-[1,1′-biphenyl]-3,4′-dicarboxamide]",5 to 50
14,"CC(C)(O)COc1ccc2c(C(=O)NC3CC4(C3)CC(Oc3cc(-c5cccc(CN)c5)ccc3C(N)=O)C4)cnn2c1 (stereo not shown) [Example 252, N-(6-((3′-(aminomethyl)-4-carbamoyl-[1,1′-biphenyl]-3-yl)oxy)spiro[3.3]heptan-2-yl)-6-(2-hydroxy-2-methylpropoxy)pyrazolo[1,5-a]pyridine-3-carboxamide]",5 to 50
15,"CC(C)(O)COc1ccc2c(C(=O)NC3CC4(C3)CC(Oc3cc(-c5cc(F)cc(C#N)c5)ccc3C(N)=O)C4)cnn2c1 (stereo not shown) [Example 253, N-(6-((4-carbamoyl-3′-cyano-5′-fluoro-[1,1′-biphenyl]-3-yl)oxy)spiro[3.3]heptan-2-yl)-6-(2-hydroxy-2-methylpropoxy)pyrazolo[1,5-a]pyridine-3-carboxamide]",5 to 50
16,"CC(C)(O)COc1ccc2c(C(=O)NC3CC4(C3)CC(Oc3cc(-c5cc(C#N)cc([N+](=O)[O-])c5)ccc3C(N)=O)C4)cnn2c1 (stereo not shown) [Example 254, N-(6-((4-carbamoyl-3′-cyano-5′-nitro-[1,1′-biphenyl]-3-yl)oxy)spiro[3.3]heptan-2-yl)-6-(2-hydroxy-2-methylpropoxy)pyrazolo[1,5-a]pyridine-3-carboxamide]",5 to 50
17,"CC(C)(O)COc1ccc2c(C(=O)NC3CC4(C3)CC(Oc3cc(-c5cc(C(=O)O)cc(C(=O)O)c5)ccc3C(N)=O)C4)cnn2c1 (stereo not shown) [Example 255, 4′-carbamoyl-3′-((6-(6-(2-hydroxy-2-methylpropoxy)pyrazolo[1,5-a]pyridine-3-carboxamido)spiro[3.3]heptan-2-yl)oxy)-[1,1′-biphenyl]-3,5-dicarboxylic acid]",5 to 50
18,"CC(C)(O)COc1ccc2c(C(=O)NC3CC4(C3)CC(Oc3cc(-c5cccnc5)ccc3C(N)=O)C4)cnn2c1 (stereo not shown) [Example 256, N-(6-(2-carbamoyl-5-(pyridin-3-yl)phenoxy)spiro[3.3]heptan-2-yl)-6-(2-hydroxy-2-methylpropoxy)pyrazolo[1,5-a]pyridine-3-carboxamide]",5 to 50
19,"CC(C)(O)COc1ccc2c(C(=O)NC3CC4(C3)CC(Oc3cc(-c5cccc(C(N)C(=O)O)c5)ccc3C(N)=O)C4)cnn2c1 (stereo not shown) [Example 257, 2-amino-2-(4′-carbamoyl-3′-((6-(6-(2-hydroxy-2-methylpropoxy)pyrazolo[1,5-a]pyridine-3-carboxamido)spiro[3.3]heptan-2-yl)oxy)-[1,1′-biphenyl]-3-yl)acetic Acid]",5 to 50
